Results published in patent US9353090B2, “Heterocyclic carboxylic acids as activators of soluble guanylate cyclase” (Boehringer Ingelheim International GmbH, priority 2014, dated 2016).
In brackets after ≈: the same amount, converted by molar mass.

Legend:
[1] = target: human soluble guanylate cyclase alpha 1 and beta 1 subunits (sGC) (Homo sapiens (Human), UniProt Q02108+Q02153); experiment: sGC cellular activator assay (cGMP, HTRF), in the presence and absence of 50% human serum; format: cell-based; conditions: CHO cells stably expressing human sGC alpha 1/beta 1, preincubated with 40 microM ODQ; cGMP by HTRF; Table 2 does not state whether with or without 50% human serum
In short: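 Heme-oxidized conditions: ODQ (40 microM, 1 h) pretreatment of CHO cells stably expressing human α1/β1 sGC, in buffer containing 0.1% BSA and IBMX.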

[2] = Human liver microsome (HLM) metabolic stability assay; format: in vitro ADME; conditions: human liver microsomes
In short: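 Compound at 1 uM incubated with human liver microsomes at 37° C. for 60 min after NADPH addition. Aliquots quenched in cold acetonitrile at 0, 5, 15, 30 and 60 min and analysed by LC/MS/MS. t1/2 from ln(% remaining) vs time slope; CLint, CLh and % Qh derived from it (n=1).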

physchem = conditions: kinetic from dmso stock
[3] = pH 2.2, aqueous buffer, Solubility (pH 2.2)
[4] = pH 4.5, aqueous buffer, Solubility (pH 4.5)
[5] = pH 6.8, aqueous buffer, Solubility (pH 6.8)

human soluble guanylate cyclase alpha 1 and beta 1 subunits (sGC), sequence (Q02108 whole entry partner): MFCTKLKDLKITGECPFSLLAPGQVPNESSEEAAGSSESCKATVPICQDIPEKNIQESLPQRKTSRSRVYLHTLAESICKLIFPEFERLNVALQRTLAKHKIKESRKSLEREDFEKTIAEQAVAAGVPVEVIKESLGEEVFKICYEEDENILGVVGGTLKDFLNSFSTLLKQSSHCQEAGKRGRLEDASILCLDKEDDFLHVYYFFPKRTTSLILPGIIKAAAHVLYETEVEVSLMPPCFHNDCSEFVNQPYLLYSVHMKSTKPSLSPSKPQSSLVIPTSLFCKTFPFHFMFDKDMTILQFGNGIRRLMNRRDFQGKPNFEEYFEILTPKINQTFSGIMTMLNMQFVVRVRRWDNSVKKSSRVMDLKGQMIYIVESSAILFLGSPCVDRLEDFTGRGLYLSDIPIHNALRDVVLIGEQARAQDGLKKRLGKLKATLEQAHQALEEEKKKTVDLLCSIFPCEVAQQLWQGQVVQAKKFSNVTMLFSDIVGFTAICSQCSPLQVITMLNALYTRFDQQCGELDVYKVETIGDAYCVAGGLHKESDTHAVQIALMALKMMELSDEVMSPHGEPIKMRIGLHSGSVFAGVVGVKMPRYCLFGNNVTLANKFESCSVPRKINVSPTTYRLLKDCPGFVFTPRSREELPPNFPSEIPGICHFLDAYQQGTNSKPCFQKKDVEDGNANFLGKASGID
human soluble guanylate cyclase alpha 1 and beta 1 subunits (sGC), sequence (Q02153 whole entry): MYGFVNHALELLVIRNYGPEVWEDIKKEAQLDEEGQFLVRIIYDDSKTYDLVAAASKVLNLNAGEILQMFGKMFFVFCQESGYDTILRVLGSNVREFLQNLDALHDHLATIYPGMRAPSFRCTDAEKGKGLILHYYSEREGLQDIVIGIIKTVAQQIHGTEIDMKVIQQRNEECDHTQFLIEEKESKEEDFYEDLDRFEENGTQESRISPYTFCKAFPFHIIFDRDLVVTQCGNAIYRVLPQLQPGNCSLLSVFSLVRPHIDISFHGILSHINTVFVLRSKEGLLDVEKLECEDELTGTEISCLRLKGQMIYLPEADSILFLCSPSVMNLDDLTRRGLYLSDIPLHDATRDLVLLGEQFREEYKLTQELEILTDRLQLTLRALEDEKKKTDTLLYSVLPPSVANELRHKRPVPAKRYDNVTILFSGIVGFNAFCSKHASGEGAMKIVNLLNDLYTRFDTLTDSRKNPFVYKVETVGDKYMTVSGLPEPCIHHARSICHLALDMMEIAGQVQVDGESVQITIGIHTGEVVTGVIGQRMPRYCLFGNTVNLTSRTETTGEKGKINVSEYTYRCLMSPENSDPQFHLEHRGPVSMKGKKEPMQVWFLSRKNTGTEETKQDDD

Compound	EC50 [1]	Metabolic stability (Qh %), % hepatic blood flow [2]	solubility at 24 h (physchem; [3])	solubility at 24 h (physchem; [4])	solubility at 24 h (physchem; [5])
CO[C@@H]1CN(c2cccc(-c3cccc(C)c3OCc3cc(C)c4c(c3)CN(C3CCOCC3)C4)n2)CC[C@@H]1C(=O)O [Compound 338]	24 nM	<24%	132 µg/mL (≈ 230 µM)	106 µg/mL (≈ 185 µM)	73.6 µg/mL (≈ 129 µM)
Cc1ccc(OCc2cc(C)c3c(c2C)CCN(C2CCOCC2)C3)c(-c2csc(N3CC[C@@]4(C(=O)O)C[C@H]4C3)n2)c1 [Compound 125]	23 nM	<24%	140 µg/mL (≈ 238 µM)	20 µg/mL (≈ 34 µM)	1.2 µg/mL (≈ 2.04 µM)
Cc1cc(COc2c(C)cccc2-c2csc(N3CC[C@@]4(C(=O)O)C[C@H]4C3)n2)c(C)c2c1CN(C1COC1)CC2 [Compound 102]	3 nM	52%	130 µg/mL (≈ 232 µM)	41 µg/mL (≈ 73.2 µM)	54 µg/mL (≈ 96.5 µM)
Cc1ccc(OCc2ccc3c(c2)CCN(C2CCOC2)C3)c(-c2csc(N3CC[C@@]4(C(=O)O)C[C@H]4C3)n2)c1 (some centres unmarked) [Compound 114]	7 nM	<24%	120 µg/mL (≈ 220 µM)	38 µg/mL (≈ 69.6 µM)	5 µg/mL (≈ 9.16 µM)
Cc1c(COc2ccccc2-c2cccc(N3CC[C@@]4(C(=O)O)C[C@H]4C3)n2)ccc2c1CCN(C[C@H]1COCCO1)C2 [Compound 9]	1 nM	37%	130 µg/mL (≈ 228 µM)	110 µg/mL (≈ 193 µM)	53 µg/mL (≈ 93 µM)
Cc1ccc(OCc2ccc3c(c2)CCCN(C2CCOCC2)C3)c(-c2csc(N3CC[C@@]4(C(=O)O)C[C@H]4C3)n2)c1 [Compound 199]	145 nM	46%	134 µg/mL (≈ 234 µM)	51.6 µg/mL (≈ 89.9 µM)	23.8 µg/mL (≈ 41.5 µM)
Cc1cccc(-c2csc(N3C[C@@H]4C[C@]4(C(=O)O)C3)n2)c1OCc1cc(C#N)c2c(c1)CCN(C1CCOCC1)C2 [Compound 142]	23 nM	<24%	110 µg/mL (≈ 193 µM)	69 µg/mL (≈ 121 µM)	69 µg/mL (≈ 121 µM)
Cc1cc(COc2ccccc2-c2cccc(N3CC[C@@]4(C(=O)O)C[C@H]4C3)n2)cc2c1CN(C1CCOCC1)CC2 [Compound 12]	12 nM	<24%	110 µg/mL (≈ 199 µM)	90 µg/mL (≈ 163 µM)	33 µg/mL (≈ 59.6 µM)
Cc1cc(COc2c(C)cccc2-c2csc(N3CC[C@@]4(C(=O)O)C[C@H]4C3)n2)c(C)c2c1CN(C1CCCOC1)CC2 (some centres unmarked) [Compound 99]	3 nM	59%	120 µg/mL (≈ 204 µM)	69 µg/mL (≈ 117 µM)	14 µg/mL (≈ 23.8 µM)
CO[C@@H]1CN(c2nc(-c3cccc(C)c3OCc3ccc4c(c3F)CCN(C3CCOCC3)CC4)cs2)CC[C@@H]1C(=O)O [Compound 266]	5 nM	<24%	109 µg/mL (≈ 179 µM)	63.1 µg/mL (≈ 103 µM)	59.4 µg/mL (≈ 97.4 µM)
CCO[C@@H]1CN(c2nc(-c3cccc(C)c3OCc3cc(C)c4c(c3F)CCN(C3CCOCC3)C4)cs2)CC[C@@H]1C(=O)O [Compound 241]	2 nM	42.5%	129 µg/mL (≈ 207 µM)	98.5 µg/mL (≈ 158 µM)	92.2 µg/mL (≈ 148 µM)
COC[C@H]1N(c2cccc(-c3cccc(C)c3OCc3ccc4c(c3)CN(C3CCOCC3)CC4)n2)C[C@@H]2C[C@@]21C(=O)O [Compound 224]	51 nM	31%	150 µg/mL (≈ 257 µM)	145 µg/mL (≈ 249 µM)	136 µg/mL (≈ 233 µM)
Cc1cc(COc2c(C)cccc2-c2cccc(N3CC[C@@]4(C(=O)O)C[C@H]4C3)n2)cc2c1CN(C1CCOCC1)CC2 [Compound 15]	2 nM	51%	110 µg/mL (≈ 194 µM)	90 µg/mL (≈ 159 µM)	51 µg/mL (≈ 89.8 µM)
CCc1cc(COc2c(C)cccc2-c2cccc(N3C[C@@H]4C[C@]4(C(=O)O)[C@H]3COC)n2)cc2c1CN(C1CCOC1)CC2 (some centres unmarked) [Compound 55]	10 nM	<24%	150 µg/mL (≈ 251 µM)	110 µg/mL (≈ 184 µM)	82 µg/mL (≈ 137 µM)
Cc1cccc(-c2csc(N3CC[C@@]4(C(=O)O)C[C@H]4C3)n2)c1OCc1ccc2c(c1)CCN(C1COC1)C2 [Compound 85]	28 nM	29%	120 µg/mL (≈ 226 µM)	52 µg/mL (≈ 97.8 µM)	55 µg/mL (≈ 103 µM)
CCO[C@H]1CN(c2nccc(-c3cccc(C)c3OCc3cc4c(c(OC)c3)CN(C3CCOCC3)CC4)n2)CC[C@H]1C(=O)O [Compound 246]	15 nM	<24%	117 µg/mL (≈ 190 µM)	114 µg/mL (≈ 184 µM)	85.4 µg/mL (≈ 138 µM)
Cc1cc(COc2c(C)cccc2-c2csc(N3C[C@H]4C[C@@]4(C(=O)O)[C@@H]3C)n2)cc2c1CN(C1CCOCC1)CC2 [Compound 157]	28 nM	<24%	97 µg/mL (≈ 169 µM)	72 µg/mL (≈ 125 µM)	63 µg/mL (≈ 110 µM)
Cc1ccc(OCc2ccc3c(c2C)CCN(CC2COCCO2)C3)c(-c2csc(N3CC[C@@]4(C(=O)O)C[C@H]4C3)n2)c1 (some centres unmarked) [Compound 117]	2 nM	27%	120 µg/mL (≈ 203 µM)	42 µg/mL (≈ 71.2 µM)	3.4 µg/mL (≈ 5.77 µM)
CCO[C@@H]1CN(c2cccc(-c3cc(C)ccc3OCc3cc4c(c(OC)c3)CN(C3CCOCC3)CC4)n2)CC[C@@H]1C(=O)O [Compound 231]	13 nM	58%	126 µg/mL (≈ 205 µM)	126 µg/mL (≈ 205 µM)	121 µg/mL (≈ 196 µM)
O=C(O)[C@@]12CCN(c3cccc(-c4ccccc4OCc4ccc5c(c4)CCN(C4COC4)C5)n3)C[C@@H]1C2 [Compound 2]	11 nM	<24%	110 µg/mL (≈ 215 µM)	90 µg/mL (≈ 176 µM)	58 µg/mL (≈ 113 µM)
COC[C@H]1N(c2cccc(-c3cccc(C)c3OCc3cc(F)c4c(c3)CCN(C3CCOCC3)C4)n2)C[C@@H]2C[C@@]21C(=O)O [Compound 216]	14 nM	39%	144 µg/mL (≈ 240 µM)	139 µg/mL (≈ 231 µM)	134 µg/mL (≈ 223 µM)
COC[C@H]1N(c2cccc(-c3cccc(F)c3OCc3ccc4c(c3C)CCN(C3CCOCC3)CC4)n2)C[C@@H]2C[C@@]21C(=O)O [Compound 212]	34 nM	<24%	136 µg/mL (≈ 221 µM)	96.6 µg/mL (≈ 157 µM)	72.7 µg/mL (≈ 118 µM)
CO[C@H]1CN(c2cccc(-c3cccc(C)c3OCc3ccc4c(c3C)CCN(C3COC3)CC4)n2)CC[C@H]1C(=O)O [Compound 282]	14 nM	58%	137 µg/mL (≈ 240 µM)	99.6 µg/mL (≈ 174 µM)	80.5 µg/mL (≈ 141 µM)
Cc1cccc(-c2cccc(N3C[C@@H]4C[C@]4(C(=O)O)C3)n2)c1OCc1ccc2c(c1)CCN(C1COC1)CC2 [Compound 32]	4 nM	<24%	120 µg/mL (≈ 228 µM)	88 µg/mL (≈ 167 µM)	50 µg/mL (≈ 95.1 µM)
CO[C@@H]1CN(c2cccc(-c3cccc(C)c3OCc3ccc4c(c3C)CN(C3CCOCC3)C4)n2)CC[C@@H]1C(=O)O [Compound 307]	19 nM	<24%	127 µg/mL (≈ 223 µM)	101 µg/mL (≈ 176 µM)	81.2 µg/mL (≈ 142 µM)
